Measured values published in the supplement of paper PMC13207355.
± gives the standard deviation of the averaged measurements.

Assays:
Conditions in all cases: exposure time: 72 h
[1] = test system: E13 (patient-derived glioblastoma stem cells of classical subtype); experiment: surviving fraction (nuclei count normalised to DMSO); higher = more cells surviving (less toxic)
[2] = test system: E21 (patient-derived glioblastoma stem cells of mesenchymal subtype); experiment: as above
[3] = test system: E28 (patient-derived glioblastoma stem cells of classical subtype); experiment: as above
[4] = test system: E34 (patient-derived glioblastoma stem cells of proneural subtype); experiment: as above
[5] = test system: E57 (patient-derived glioblastoma stem cells of mesenchymal subtype); experiment: as above
[6] = test system: FT3469 (normal neural stem cell line); experiment: as above
[7] = test system: E13; experiment: phenotypic distance (Euclidean, principal components) from DMSO controls (arbitrary units); higher = stronger morphological change
[8] = test system: E21; experiment: as above
[9] = test system: E28; experiment: as above
[10] = test system: E34; experiment: as above
[11] = test system: E57; experiment: as above
[12] = test system: FT3469; experiment: as above
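Throughout, for phenotypic distance (Euclidean, principal components) from DMSO controls: cell Painting imaging in 384-well plates, CellProfiler features reduced to at least 20 principal components, Euclidean distance versus same-plate DMSO vehicle wells (0.1% v/v), median over six images per well.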
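Throughout, for surviving fraction (nuclei count normalised to DMSO): nuclei counted by high-content imaging of Hoechst-stained cells in laminin-coated 384-well plates, relative to 0.1% DMSO vehicle wells, with staurosporine as cell-death control.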

For `CCn1c(-c2nonc2N)nc2cnc(Oc3cccc(NC(=O)c4ccc(OCCN5CCOCC5)cc4)c3)cc21`, which surviving fraction ([1]; 4.1 nM) is on record?
The surviving fraction was 0.992 ± 0.048.

And the surviving fraction ([1]; 12.3 nM)?
Its surviving fraction is 0.995 ± 0.035.

What about the surviving fraction ([1]; 37 nM) of the same molecule?
Its surviving fraction is 0.9924 ± 0.0054.

And the surviving fraction ([1]; 111.1 nM)?
Its surviving fraction is 1.0033 ± 0.00067.

And the surviving fraction ([1]; 333.3 nM)?
Its surviving fraction is 1.03 ± 0.054.

What about the surviving fraction ([1]; 1000 nM) of the same molecule?
Its surviving fraction is 0.729 ± 0.077.

And the surviving fraction ([1]; 3000 nM)?
Its surviving fraction is 0.633 ± 0.011.

And the surviving fraction ([2]; 4.1 nM)?
Its surviving fraction is 0.933 ± 0.058.

And the surviving fraction ([2]; 12.3 nM)?
The surviving fraction was 0.948.

What about the surviving fraction ([2]; 37 nM) of the same molecule?
Its surviving fraction is 0.974 ± 0.049.

And the surviving fraction ([2]; 111.1 nM)?
Its surviving fraction is 0.925 ± 0.12.

What about the surviving fraction ([2]; 333.3 nM) of the same molecule?
Its surviving fraction is 0.898 ± 0.05.

What about the surviving fraction ([2]; 1000 nM) of the same molecule?
The surviving fraction was 0.613 ± 0.032.

What about the surviving fraction ([2]; 3000 nM) of the same molecule?
The surviving fraction was 0.448 ± 0.037.

What about the surviving fraction ([3]; 4.1 nM) of the same molecule?
The surviving fraction was 0.9684 ± 0.0013.

And the surviving fraction ([3]; 12.3 nM)?
Its surviving fraction is 0.977 ± 0.023.

What about the surviving fraction ([3]; 37 nM) of the same molecule?
Its surviving fraction is 1.02 ± 0.11.

And the surviving fraction ([3]; 111.1 nM)?
Its surviving fraction is 0.996 ± 0.069.

And the surviving fraction ([3]; 333.3 nM)?
Its surviving fraction is 0.909 ± 0.034.

And the surviving fraction ([3]; 1000 nM)?
The surviving fraction was 0.619 ± 0.0067.

And the surviving fraction ([3]; 3000 nM)?
The surviving fraction was 0.5398 ± 0.0033.

What about the surviving fraction ([4]; 4.1 nM) of the same molecule?
The surviving fraction was 1.12 ± 0.078.

What about the surviving fraction ([4]; 12.3 nM) of the same molecule?
The surviving fraction was 1.14 ± 0.2.

And the surviving fraction ([4]; 37 nM)?
The surviving fraction was 1.176 ± 0.0026.

And the surviving fraction ([4]; 111.1 nM)?
Its surviving fraction is 0.989 ± 0.056.

What about the surviving fraction ([4]; 333.3 nM) of the same molecule?
Its surviving fraction is 1.02 ± 0.087.

And the surviving fraction ([4]; 1000 nM)?
Its surviving fraction is 0.887 ± 0.11.

What about the surviving fraction ([4]; 3000 nM) of the same molecule?
Its surviving fraction is 0.746 ± 0.021.

And the surviving fraction ([5]; 4.1 nM)?
Its surviving fraction is 1.06 ± 0.028.

And the surviving fraction ([5]; 12.3 nM)?
Its surviving fraction is 1.01 ± 0.054.

What about the surviving fraction ([5]; 37 nM) of the same molecule?
The surviving fraction was 1.01 ± 0.011.

And the surviving fraction ([5]; 111.1 nM)?
Its surviving fraction is 0.996 ± 0.043.

What about the surviving fraction ([5]; 333.3 nM) of the same molecule?
Its surviving fraction is 0.86 ± 0.025.

What about the surviving fraction ([5]; 1000 nM) of the same molecule?
The surviving fraction was 0.645 ± 0.083.

What about the surviving fraction ([5]; 3000 nM) of the same molecule?
Its surviving fraction is 0.486 ± 0.059.

What about the surviving fraction ([6]; 4.1 nM) of the same molecule?
Its surviving fraction is 1.18 ± 0.047.

And the surviving fraction ([6]; 12.3 nM)?
The surviving fraction was 1.18 ± 0.11.

What about the surviving fraction ([6]; 37 nM) of the same molecule?
The surviving fraction was 1.12 ± 0.095.

What about the surviving fraction ([6]; 111.1 nM) of the same molecule?
Its surviving fraction is 1.055 ± 0.0038.

What about the surviving fraction ([6]; 333.3 nM) of the same molecule?
Its surviving fraction is 1.06 ± 0.14.

And the surviving fraction ([6]; 1000 nM)?
Its surviving fraction is 0.911 ± 0.014.

What about the surviving fraction ([6]; 3000 nM) of the same molecule?
The surviving fraction was 0.766 ± 0.07.

What about the phenotypic distance ([7]; 4.1 nM) of the same molecule?
Its phenotypic distance is 2.07 ± 0.12.

What about the phenotypic distance ([7]; 12.3 nM) of the same molecule?
Its phenotypic distance is 2.22 ± 0.034.

What about the phenotypic distance ([7]; 37 nM) of the same molecule?
Its phenotypic distance is 2.86 ± 0.92.

What about the phenotypic distance ([7]; 111.1 nM) of the same molecule?
Its phenotypic distance is 2.12 ± 0.14.

What about the phenotypic distance ([7]; 333.3 nM) of the same molecule?
Its phenotypic distance is 2.126 ± 0.021.

What about the phenotypic distance ([7]; 1000 nM) of the same molecule?
The phenotypic distance was 2.51 ± 0.32.

And the phenotypic distance ([7]; 3000 nM)?
The phenotypic distance was 3.08 ± 0.28.

What about the phenotypic distance ([8]; 4.1 nM) of the same molecule?
The phenotypic distance was 1.88 ± 0.33.

And the phenotypic distance ([8]; 12.3 nM)?
Its phenotypic distance is 2.27 ± 0.097.

What about the phenotypic distance ([8]; 37 nM) of the same molecule?
Its phenotypic distance is 2.12 ± 0.036.

And the phenotypic distance ([8]; 111.1 nM)?
Its phenotypic distance is 2.01 ± 0.098.

And the phenotypic distance ([8]; 333.3 nM)?
The phenotypic distance was 1.94 ± 0.17.

And the phenotypic distance ([8]; 1000 nM)?
Its phenotypic distance is 2.16 ± 0.28.

What about the phenotypic distance ([8]; 3000 nM) of the same molecule?
The phenotypic distance was 2.66 ± 0.25.

And the phenotypic distance ([9]; 4.1 nM)?
The phenotypic distance was 2.14 ± 0.14.

And the phenotypic distance ([9]; 12.3 nM)?
The phenotypic distance was 2.12 ± 0.071.

And the phenotypic distance ([9]; 37 nM)?
Its phenotypic distance is 2.16 ± 0.14.

And the phenotypic distance ([9]; 111.1 nM)?
Its phenotypic distance is 2.28 ± 0.11.

What about the phenotypic distance ([9]; 333.3 nM) of the same molecule?
Its phenotypic distance is 2.41 ± 0.027.

And the phenotypic distance ([9]; 1000 nM)?
The phenotypic distance was 3.356 ± 0.0074.

What about the phenotypic distance ([9]; 3000 nM) of the same molecule?
The phenotypic distance was 3.1 ± 0.3.

And the phenotypic distance ([10]; 4.1 nM)?
Its phenotypic distance is 1.73 ± 0.42.

And the phenotypic distance ([10]; 12.3 nM)?
The phenotypic distance was 1.69 ± 0.44.

What about the phenotypic distance ([10]; 37 nM) of the same molecule?
Its phenotypic distance is 2.04 ± 0.11.

What about the phenotypic distance ([10]; 111.1 nM) of the same molecule?
Its phenotypic distance is 1.79 ± 0.17.

What about the phenotypic distance ([10]; 333.3 nM) of the same molecule?
Its phenotypic distance is 1.73 ± 0.2.

And the phenotypic distance ([10]; 1000 nM)?
Its phenotypic distance is 1.67 ± 0.12.

And the phenotypic distance ([10]; 3000 nM)?
The phenotypic distance was 2.39 ± 0.25.

What about the phenotypic distance ([11]; 4.1 nM) of the same molecule?
Its phenotypic distance is 0.962 ± 0.15.

What about the phenotypic distance ([11]; 12.3 nM) of the same molecule?
Its phenotypic distance is 1.68 ± 1.1.

And the phenotypic distance ([11]; 37 nM)?
Its phenotypic distance is 0.775 ± 0.097.

And the phenotypic distance ([11]; 111.1 nM)?
Its phenotypic distance is 0.817 ± 0.15.

What about the phenotypic distance ([11]; 333.3 nM) of the same molecule?
The phenotypic distance was 1.73 ± 0.51.

And the phenotypic distance ([11]; 1000 nM)?
The phenotypic distance was 2.26 ± 0.43.

What about the phenotypic distance ([11]; 3000 nM) of the same molecule?
Its phenotypic distance is 3.68 ± 0.26.

And the phenotypic distance ([12]; 4.1 nM)?
Its phenotypic distance is 2.61 ± 1.5.

And the phenotypic distance ([12]; 12.3 nM)?
Its phenotypic distance is 1.73 ± 0.41.

And the phenotypic distance ([12]; 37 nM)?
The phenotypic distance was 1.75 ± 0.065.

What about the phenotypic distance ([12]; 111.1 nM) of the same molecule?
Its phenotypic distance is 1.587 ± 0.0035.

And the phenotypic distance ([12]; 333.3 nM)?
Its phenotypic distance is 1.48 ± 0.056.

And the phenotypic distance ([12]; 1000 nM)?
Its phenotypic distance is 1.9 ± 0.018.

What about the phenotypic distance ([12]; 3000 nM) of the same molecule?
Its phenotypic distance is 3.17 ± 0.13.
